One compound from PMC9697519, “New Theonellapeptolides from Indonesian Marine Sponge Theonella swinhoei as Anti-Austerity Agents” (Marine Drugs, 2022) can be followed below.

Read-outs that look alike come from different tables or passages of the source. Where a SMILES comes first, the peptide text is derived from it. Bridges are numbered along the chain shown (N, C = ends). [ ]: non-standard residue; d: D form. The star is where a group is joined. dNMeaIle = CC[C@H](C)[C@@H](NC)C(=O)O; d(aIle) = CC[C@H](C)[C@@H](N)C(=O)O; NMeI = CC[C@H](C)[C@H](NC)C(=O)O; dNMeL = CN[C@H](CC(C)C)C(=O)O; NMeV = CN[C@H](C(=O)O)C(C)C; Methoxyacetyl = COCC(=O)*; βAla = NCCC(=O)O

Experiment [1] relates to MIA PaCa-2 cells. Put plainly: Colony formation assay. Type of experiment: cell-based, human. The note with it: then fresh DMEM 10 days, 500 cells/well, three replicates. The protocol: Figure 6 (A) Morphological changes of MIA PaCa-2 cells induced by 4 in a nutrient-deprived medium (NDM). MIA PaCa-2 tumor cells were treated with 4 at the indicated concentrations in NDM in a 24-well plate and incubated for 24 h. The cells were stained with ethidium bromide (EB) and acridine orange (AO), and photographed in the fluorescence (red and green) under phase contrast modes using a Nikon sCMOS camera oxford instrument, Hamamatsu Photonics/Ti-E. (B) Structure of bioactive compound 4. (C) Effect of 4 on colony formation by MIA PaCa-2 cells in DMEM. (a) Graph showing the average values of the area occupied by MIA PaCa-2 cell colonies (three replicates). **** p < 0.0001 compared to the untreated control group. (b) Representative wells showing colonies of MIA PaCa-2 cells.
Pancreatic cancer cells have a great ability to migrate to surrounding tissues, growing and forming new colonies after metastasis in distant organs with sufficient nutrition. These processes are responsible for the majority of deaths from pancreatic cancer. The phenomenon is called “colonization”, and occurs during cancer metastasis. Migrating pancreatic cancer cells are likely to form small colonies (micrometastases), which then become large tumors. The discovery of potential inhibitors of the colony-forming ability of pancreatic cancer represents a promising approach to prevent pancreatic tumor metastasis. […] Therefore, theonellapeptolides isolated from marine origin were studied for their ability to inhibit MIA PaCa-2 colony formation. MIA PaCa-2 cells (500 cells/well) were placed in a 24-well plate and treated with 4 at 12.5, 25, and 50 μM (non-cytotoxic concentrations) in DMEM for 24 h.
Subsequently, the medium was replaced with fresh DMEM, and the cells were allowed to grow as colonies for 10 days in a humified CO2 incubator at 37 °C. […]
Colony Formation inhibitory effect of 4 at different concentrations against MIA PaCa-2 cells was determined as described previously.

Experiment [2] deals with human pancreatic cancer cell line MIA PaCa-2. The note with it: 24 h. Here is the method:
Data are presented as preferential cytotoxicity (PC50) values, which represent the concentration that kills 50% of cancer cells in a nutrient-deprived medium (NDM) without any toxicity in a nutrient-rich medium DMEM (Dulbecco’s Modified Eagle Medium).
Briefly, MIA PaCa-2, HepG2 and MCF-7 Cells (2 × 10^4 cells/well) were seeded in 96-well plates and incubated in fresh DMEM. The cells were washed with Dulbecco’s phosphate-buffered saline (PBS) before the medium was replaced with DMEM or NDM containing serial dilutions of the test samples. After 24 h of incubation, the cells were washed with PBS, and 100 μL of DMEM containing 10% WST-8 cell counting kit solution was added to each well. After 3 h of incubation, the absorbance was measured at 450 nm. Cell viability was calculated from the mean values for three wells. The preferential cytotoxicity was expressed as the concentration at which 50% of cells died preferentially in NDM (PC50).
Pancreatic cancer cells (MIA PaCa-2 cells) were kindly provided by Dr. Suresh Awale, an Associate Professor at Institute of Natural Medicine, University Toyama, Toyama, Japan. MIA PaCa-2 (RBRC-RCB2094), human pancreatic cancer cell lines were purchased from Riken BRC cell bank.

`CC[C@H](C)[C@H]1C(=O)NCCC(=O)N[C@H]([C@@H](C)CC)C(=O)N(C)[C@@H](C(C)C)C(=O)N[C@@H](C)C(=O)NCCC(=O)N[C@H](CC(C)C)C(=O)N(C)[C@H]([C@@H](C)CC)C(=O)O[C@H](C)[C@H](NC(=O)[C@@H](CC(C)C)N(C)C(=O)[C@@H](NC(=O)COC)C(C)C)C(=O)NCCC(=O)N[C@H](CC(C)C)C(=O)N1C` [Compound 4, theonellapeptolide IId] (Methoxyacetyl-V[dNMeL]T[βAla][dL][NMeI][βAla][d(aIle)][NMeV]A[βAla][dL][dNMeaIle]; ester 3-C): the “total well area occupied by colonies” value in experiment [1] (12.5 μM in DMEM for 24 h) amounted to 100%. The colony formation entry in experiment [1] (25 μM in DMEM for 24 h) and in experiment [1] (50 μM in DMEM for 24 h) was “total inhibition of colony formation” each time. Further, the IC50 turned out to be 38.2 µM in experiment [2] (read-out: IC50 in DMEM, MIA PaCa-2, nutrient-rich DMEM, WST-8, absorbance 450 nm, mean of three wells) and 7.8 µM in experiment [2] (read-out: PC50 in NDM, MIA PaCa-2, preferential cytotoxicity, nutrient-deprived medium (NDM), WST-8, mean of three wells).
